# Tested on: A. baumannii AR-0088
# Assay: Dose-ranging and efficacy, neutropenic thigh infection
# Type: in vivo, mouse
# Conditions: neutropenic BALB/c mice, burden at 26 h
# Text: Neutropenic thigh infection model
# Acclimated CD-1 mice (see above) were rendered neutropenic prior to the experiment via cyclophosphamide treatment. […]
# Dose-ranging and efficacy of fabimycin
# The protocol to assess fabimycin’s efficacy in A. baumannii-infected mice (strain: AR-0088) was approved by the IACUC at Pharmacology Discovery Services, Taiwan, Ltd. (protocol number: IM003-01282019). In this study, neutropenic female BALB/c mice 7-8 weeks in age from BioLASCO Taiwan (AAALAC-certified Charles River Licensee) weighing 18 ± 2 grams were used. The mice were rendered neutropenic and inoculated in the same method as used for the pharmacokinetic study. Fabimycin was formulated in 17% Cremophor EL/3% SBE-β-CD and IV administered. Colistin was formulated in 0.9% NaCl and subcutaneously (SC) administered.
# 5 or 30 minutes after dosing with respect to IV and SC route to detect acute toxicity, which was recorded and reported, […]
# Animals were euthanized using compressed CO2 gas in a CO2 gas chamber. […] Bacterial burden in the tissue homogenates was determined by performing 10-fold serial dilutions and plating 0.1 mL of each to nutrient agar plates. Colonies were counted after 18 - 24 h incubation. The colony-forming unit value per tissue (CFU/thigh) was calculated. […]
# IM011-12282020). […] Tissues were collected and pathogen burden evaluated by dilution plating technique on nutrient agar plates.
smiles,measurement,setting,value
Cc1c(CN(C)C(=O)/C=C/c2cnc3c(c2)CC[C@H](N)C(=O)N3)oc2ccccc12 [fabimycin],reduction of bacterial burden,"75 mg/kg IV four times a day, NDM-1 containing strain",~2 log(CFU/thigh)
same,dose at which significant dose-dependent responses begin,"IV four times a day, doses 1.25–75 mg/kg",30 mg/kg
